The results in this text go back to patent EP4786466A1, “QUINAZOLINE DERIVATIVE, SALT THEREOF, AND PHARMACEUTICAL COMPOSITION COMPRISING SAME AS ACTIVE INGREDIENT” (Korea Research Institute of Chemical Technology, priority 2023, dated 2025).

Where two headings read alike, the source gives them in different places.

Series [1] concerns the target T1, Recombinant GST-TAG-MASTL (Homo sapiens, UniProt Q96GX5).
T1 construct: GST; purchased Thermo Fisher Scientific
T1 sequence (Q96GX5 1-879): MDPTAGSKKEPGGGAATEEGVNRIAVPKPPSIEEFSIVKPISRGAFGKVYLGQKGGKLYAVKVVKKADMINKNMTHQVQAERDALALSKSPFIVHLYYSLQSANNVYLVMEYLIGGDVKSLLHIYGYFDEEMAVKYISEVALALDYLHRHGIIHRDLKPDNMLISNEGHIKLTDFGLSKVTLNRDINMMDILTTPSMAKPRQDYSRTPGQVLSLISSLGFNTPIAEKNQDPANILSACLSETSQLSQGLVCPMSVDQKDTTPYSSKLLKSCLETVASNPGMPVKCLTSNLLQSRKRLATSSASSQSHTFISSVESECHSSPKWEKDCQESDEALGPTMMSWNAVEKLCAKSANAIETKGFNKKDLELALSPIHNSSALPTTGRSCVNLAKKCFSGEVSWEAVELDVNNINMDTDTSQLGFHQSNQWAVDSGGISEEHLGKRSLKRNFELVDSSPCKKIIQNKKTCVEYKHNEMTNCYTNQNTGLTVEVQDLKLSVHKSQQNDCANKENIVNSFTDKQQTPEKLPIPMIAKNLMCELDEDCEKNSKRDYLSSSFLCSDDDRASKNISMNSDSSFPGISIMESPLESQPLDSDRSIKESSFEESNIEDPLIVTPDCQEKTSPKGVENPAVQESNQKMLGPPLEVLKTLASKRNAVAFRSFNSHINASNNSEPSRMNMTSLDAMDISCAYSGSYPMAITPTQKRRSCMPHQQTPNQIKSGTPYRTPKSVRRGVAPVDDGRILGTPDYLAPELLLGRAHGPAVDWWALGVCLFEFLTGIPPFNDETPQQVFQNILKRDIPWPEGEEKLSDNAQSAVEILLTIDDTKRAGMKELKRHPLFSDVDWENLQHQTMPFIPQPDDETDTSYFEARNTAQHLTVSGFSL
Briefly: HTRF-based kinase assay (HTRF KinEASE assay kit). The series is classed as biochemical. As to conditions: for activity at 1 µM: read-out: MASTL activity (%) HTRF (1 µM); for activity at 10 µM: read-out: MASTL activity (%) HTRF. The source says: Recombinant GST-TAG-MASTL (Thermo Fisher Scientific, MA, USA) was used for HTRF-based kinase assays. The HTRF KinEASE assay kit (CisBio, MA, USA) was used according to the manufacturer's instructions.

For another series, the system named is pENSA. Nature of the series: pENSA level by immunofluorescence (described method: in vitro kinase analysis with GST-tag-MASTL and His-tag-ENSA). The series is classed as cell-based. The conditions noted are these: for pENSA (%) Immunofluor ecense (1 µM): compound 1 µM; for IC50: read-out: IC50(nM) pENSA. The procedure, abridged:
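In vitro kinase reaction using recombinant GST-tagged MASTL with His-tagged ENSA as substrate; phosphorylated ENSA (pENSA) serves as read-out of MASTL activity. Cell lines named: MCF7 breast cancer and MCF10A.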

The nature of a further series: in vitro. The conditions noted are these: human, mcf10a cells.
For series [2], the system named is MCF7 breast cancer cell lines. Briefly: Cell viability analysis, WST-8 assay, MCF7. The conditions noted are these: Homo sapiens, MCF7, 72 h; for viability at 1 µM: read-out: Cell viability (%) WST-8, MCF7 (1 µM), compound 1 µM, 72 hours; for viability at 1.25 µM: read-out: Cell viability (%) WST-8, MCF7, footnote a: concentration 1.25 µM, 72 hours. A general note: Tetrazolium dyes change colour on reduction, which living cells bring about.
Method: MCF7 breast cancer cell lines and MCF10A normal breast cancer cell lines were treated with serial dilutions of the compounds of the present invention ranging from 1 µM to 15.63 nM for 72 hours. Cell viability was measured by the WST-8 assay (Cyto XTM cell viability assay kit; LPS solution, Daejeon, Korea) according to the manufacturer's instructions.

Setting [3] is: HTRF, read-out: IC50(nM) MASTL activity.

Take `Clc1nc(Nc2cc(C3CC3)[nH]n2)c2ccccc2n1` [compound 2a, 2-chloro-M-(5-cyclopropyl-1G-pyrazol-3-yl)quinazolin-4-amine]: the activity at 1 µM in series [1] (compound 1 µM) turned out to be 73.4%. Moreover, the “pENSA (%) Immunofluor ecense (1 µM)” value with pENSA was 105%. Further, the values for the viability at 1 µM (in the series “in vitro”; in series [2]) were 93.3% and 106%, respectively.
Turning to `Cc1cc(Nc2nc(N3CC4CC3CN4CC(C)C)nc3ccccc23)n[nH]1` (stereo not shown) [compound 27e, 2-(5-isobutyl-2,5-diazabicyclo[2.2.1]heptan-2-yl)-M-(5-methyl-1G-pyrazol-3-yl)quinazolin-4-amine], the activity at 1 µM in series [1] (compound 1 µM) is 67.4%. Moreover, the “pENSA (%) Immunofluor ecense (1 µM)” value in the series on pENSA stood at 90.1%. Besides, the viability at 1 µM in “in vitro” turned out to be 74.8%; in series [2], 88.3%.
In the case of `c1ccc2sc(-c3ccc(Nc4nc(Nc5cc(C6CC6)[nH]n5)c5ccccc5n4)cc3)nc2c1` [compound 4m, M^2-(4-(benzo[c]thiazol-2-yl)phenyl)-M^4-(5-cyclopropyl-1G-pyrazol-3-yl)quinazoline-2,4-diamine], the activity at 1 µM in series [1] (compound 1 µM) amounted to 73%. The “pENSA (%) Immunofluor ecense (1 µM)” value with pENSA is recorded as 88.8%. Further, the results for the viability at 1 µM (in the series “in vitro”; in series [2]) were 85.8% and 110%, respectively.
Take `CC(C)(C)OC(=O)Nc1cccc(Nc2nc(Nc3ccc(CC#N)cc3)nc3ccccc23)c1` [compound 3m, sdqs-butyl (3-((2-((4-(cyanomethyl)phenyl)amino)quinazolin-4-yl)amino)phenyl)carbamate]: the activity at 1 µM in series [1] (compound 1 µM) was 117%. In addition, the “pENSA (%) Immunofluor ecense (1 µM)” value in the series on pENSA is recorded as 85%. Further, the viability at 1 µM in “in vitro” is 91.7%; in series [2], 116%.
Consider `CN(C)S(=O)(=O)c1ccc(Nc2nc(Nc3ccc(C(F)(F)F)cc3)nc3ccccc23)cc1` [compound 25c, M,M-dimethyl-4-((2-((4-(trifluoromethyl)phenyl)amino)quinazolin-4-yl)amino)benzenesulfonamide], for which, in series [1], the activity at 1 µM is 108%. Moreover, the “pENSA (%) Immunofluor ecense (1 µM)” value in the series with pENSA worked out at 96.5%. Moreover, the viability at 1 µM in “in vitro” is 90%; in series [2], 86.4%.
With `FC(F)(F)c1ccc(C2=CCN(c3nc(Nc4cc(C5CC5)[nH]n4)c4ccccc4n3)CC2)cc1` [compound 6f, M-(5-cyclopropyl-1G-pyrazol-3-yl)-2-(4-(4-(trifluoromethyl)phenyl)-3,6-dihydropyridin-1(2G)-yl)quinazolin-4-amine], in series [1] (compound 1 µM), the activity at 1 µM amounted to 55.8%. The “pENSA (%) Immunofluor ecense (1 µM)” value in the series on pENSA is recorded as 110%. Besides, the viability at 1 µM is 102% in “in vitro” and 91.9% in series [2].
In general, IC50 refers to the concentration that gives 50% inhibition. `Fc1cc(Br)ccc1Nc1nc(Nc2cc(C3CC3)[nH]n2)c2ccccc2n1` [compound 4c, M^2-(4-bromo-2-fluorophenyl)-M^4-(5-cyclopropyl-1G-pyrazol-3-yl)quinazoline-2,4-diamine]: the activity at 1 µM in series [1] (compound 1 µM) was found to be 47.1%. In addition, in the series on pENSA, the “pENSA (%) Immunofluor ecense (1 µM)” value is listed as 69%. For the same compound, the IC50 in the series with pENSA came out at 850 nM. The results for the viability at 1 µM (in “in vitro”; in series [2]) were 83.3% and 50.8%, respectively.
Regarding `CC(C)C(=O)N1CC2CC1CN2c1nc(Nc2cc(C3CC3)[nH]n2)c2ccccc2n1` (stereo not shown) [compound 15d, 1-(5-(4-((5-cyclopropyl-1G-pyrazol-3-yl)amino)quinazolin-2-yl)-2,5-diazabicyclo[2.2.1]heptan-2-yl)-2-methylpropan-1-one], in series [1] (compound 1 µM), the activity at 1 µM was 58.8%. Further, the “pENSA (%) Immunofluor ecense (1 µM)” value with pENSA is given as 68.6%. Also, the viability at 1 µM in “in vitro” amounted to 40.3%; in series [2] it was 51.5%.
Consider `O=C(c1ccccc1)N1CC=C(c2nc(Nc3cc(C4CC4)[nH]n3)c3ccccc3n2)CC1` [compound 9a, (4-(4-((5-cyclopropyl-1G-pyrazol-3-yl)amino)quinazolin-2-yl)-3,6-dihydropyridin-1(2G)-yl)(phenyl)methanone], for which the half-inhibitory concentration (IC50) in series [1] (setting [3]) turned out to be 203 nM. Further, in series [1] (compound 1 µM), the activity at 1 µM stood at 45.5%. In the series on pENSA, the “pENSA (%) Immunofluor ecense (1 µM)” value is 50.5%. Moreover, the viability at 1 µM worked out at 49.7% in “in vitro” and 63.8% in series [2].
On to `NS(=O)(=O)c1ccc(Nc2nc(Nc3cc(C4CC4)[nH]n3)c3ccccc3n2)cc1` [compound 4g, 4-((4-((5-cyclopropyl-1G-pyrazol-3-yl)amino)quinazolin-2-yl)amino)benzenesulfonamide], for which the IC50 in series [1] stood at 189 nM; with pENSA, 344 nM; in series [2] (read-out: IC50 Cell viability (MCF7)), 2700 nM. For the same compound, in series [1], the activity at 10 µM turned out to be 18.6%. The “pENSA (%) Immunofluor ecense (1 µM)” value in the series on pENSA turned out to be 10.4%. Further, the figures for the viability at 1.25 µM (in “in vitro”; in series [2]) were 9.3% and 85.3%, respectively.
In the case of `COC(=O)c1ccc(Nc2nc(Nc3cc(C4CC4)[nH]n3)c3ccccc3n2)cc1` [compound 4o, Methyl 4-((4-((5-cyclopropyl-1G-pyrazol-3-yl)amino)quinazolin-2-yl)amino)benzoate], the activity at 1 µM in series [1] (compound 1 µM) is 53.8%. Besides, in the series with pENSA, the “pENSA (%) Immunofluor ecense (1 µM)” value turned out to be 19.2% and the concentration for half-maximal inhibition (IC50) was found to be 680 nM. Further, the viability at 1 µM in “in vitro” is 79.4%. The viability at 1 µM in series [2] is 53.4%.
Regarding `Cc1ccc(S(=O)(=O)N2CC3CC2CN3c2nc(Nc3cc(C4CC4)[nH]n3)c3ccccc3n2)cc1F` (stereo not shown) [compound 15w, M-(5-cyclopropyl-1G-pyrazol-3-yl)-2-(5-((3-fluoro-4-methylphenyl)sulfonyl)-2,5-diazabicyclo[2.2.1]heptan-2-yl)quinazolin-4-amine], the activity at 1 µM in series [1] (compound 1 µM) worked out at 64.1%. In addition, the “pENSA (%) Immunofluor ecense (1 µM)” value in the series on pENSA worked out at 86.2%. Also, the viability at 1 µM turned out to be 107% in the series “in vitro” and 93.5% in series [2].
With `O=S(=O)(c1cccc(C(F)(F)F)c1)N1CC2CC1CN2c1nc(Nc2cc(C3CC3)[nH]n2)c2ccccc2n1` (stereo not shown) [compound 15u, M-(5-cyclopropyl-1G-pyrazol-3-yl)-2-(5-((3-(trifluoromethyl)phenyl)sulfonyl)-2,5-diazabicyclo[2.2.1]heptan-2-yl)quinazolin-4-amine], the IC50 in series [1] (setting [3]) was found to be 269 nM. Further, the activity at 1 µM in series [1] (compound 1 µM) was 48.3%. The “pENSA (%) Immunofluor ecense (1 µM)” value in the series with pENSA is 100%. The figures for the viability at 1 µM (in “in vitro”; in series [2]) were 121% and 107%, respectively.
For `c1ccc2c(Nc3cc(C4CC4)[nH]n3)nc(Nc3ccc(Cc4nnn[nH]4)cc3)nc2c1` [compound 4e, M^2-(4-((1G-tetrazol-5-yl)methyl)phenyl)-M^4-(5-cyclopropyl-1G-pyrazol-3-yl)quinazoline-2,4-diamine], the IC50 in series [1] (setting [3]) was 164 nM. Besides, the activity at 10 µM in series [1] (footnote b: concentration 10 µM) amounted to 15.1%. Further, the “pENSA (%) Immunofluor ecense (1 µM)” value in the series on pENSA was 90.7%. Also, the viability at 1.25 µM turned out to be 110% in the series “in vitro” and 112% in series [2].
As for `CN(C)S(=O)(=O)c1ccc(Nc2nc(Nc3ccc(C#N)cc3)nc3ccccc23)cc1` [compound 25b, 4-((2-((4-cyanophenyl)amino)quinazolin-4-yl)amino)-M,M-dimethylbenzenesulfonamide], the activity at 1 µM in series [1] (compound 1 µM) turned out to be 91.6%. For the same compound, the “pENSA (%) Immunofluor ecense (1 µM)” value in the series on pENSA was 102%. Further, the results for the viability at 1 µM (in the series “in vitro”; in series [2]) were 58.1% and 86.4%, respectively.
In the case of `CCCc1ccc(S(=O)(=O)N2CC3CC2CN3c2nc(Nc3cc(C4CC4)[nH]n3)c3ccccc3n2)cc1` (stereo not shown) [compound 15x, M-(5-cyclopropyl-1G-pyrazol-3-yl)-2-(5-((4-propylphenyl)sulfonyl)-2,5-diazabicyclo[2.2.1]heptan-2-yl)quinazolin-4-amine], the activity at 1 µM in series [1] (compound 1 µM) is 68.4%. The “pENSA (%) Immunofluor ecense (1 µM)” value in the series on pENSA was determined as 94.0%. The viability at 1 µM in “in vitro” came to 98.3%; in series [2] it was 122%.
On to `O=C(c1ccccc1)N1CC2CC1CN2c1nc(Nc2cc(C3CC3)[nH]n2)c2ccccc2n1` (stereo not shown) [compound 15e, (5-(4-((5-cyclopropyl-1G-pyrazol-3-yl)amino)quinazolin-2-yl)-2,5-diazabicyclo[2.2.1]heptan-2-yl)(phenyl)methanone], for which the activity at 1 µM in series [1] (compound 1 µM) came to 80%. The “pENSA (%) Immunofluor ecense (1 µM)” value in the series with pENSA turned out to be 48.2%. Besides, the viability at 1 µM in “in vitro” is 31.3%; in series [2], 68.3%.
